Measurements reported in patent publication EP1873155A1, “Inhibitors of the HIV integrase enzyme” (PFIZER INC., priority 2004, dated 2005).
pEC50, pIC50: −log10 of the molar value.

Each compound was assayed against HIV-1 integrase (assay: Integrase strand-transfer scintillation proximity assay). Conditions: full-length wild type HIV-1 integrase (SF1), 50 min at 37°C.
Type: biochemical
Description: The annealed product represents preprocessed viral ds-DNA derived from the LTR U5 sequence of the viral genome.
The radiolabeled product was purified using a NENSORB cartridge and stored in stabilized aqueous solution (PerkinElmer).
White, polystyrene, flat-bottom, non-binding surface, 96-well plates were purchased from Corning.
Supernant was discarded and pellet resuspended in 50 mM HEPES pH 7.0, 750 mM NaCl, 5 mM DTT, 1 mM AEBSF and homogenized in a 40 mL Dounce homogenizer for 20 minutes on ice. […] Supernant was discarded and pellet resuspended in 50 mM HEPES pH 7.0, 750 mM NaCl, 25 mM CHAPS, 5 mM DTT, 1 mM AEBSF.
Supernant was then diluted 1:1 with 50 mM HEPES pH 7.0, 25 mM CHAPS, 1 mM DTT, 1 mM AEBSF and loaded onto a Q-Sepharose column pre-equilibrated with 50 mM HEPES, pH 7.0, 375 mM NaCl, 25 mM CHAPS, 1 mM DTT, 1 mM AEBSF. The flow through peak was collected and NaCl diluted to 0.1 M with 50 mM HEPES pH 7.0, 25 mM CHAPS, 1 mM DTT, 0.5 mM AEBSF and loaded onto a SP-Sepharose column pre-equilibrated with 50 mM HEPES pH 7.0, 100 mM NaCl, 25 mM CHAPS, 1 mM DTT, 0.5 mM AEBSF. After washing the column with the equilibration buffer, a 100 to 400 mM NaCl gradient was run. The eluted integrase was concentrated and run on a S-300 gel diffusion column using 50 mM HEPES pH 7.0, 500 mM NaCl, 25 mM CHAPS, 1 mM DTT, 0.5 mM AEBSF. […]

Point of comparison: “1-[({[(4R)-2,2-dimethyl-1,3-dioxolan-4-yl]methyl}amino)meth yl]-3-(4-fluorobenzyl)-7-hydroxy-3,7-dihydro-6H-pyrrolo[2,3-c]-1,7-naphthyridin-6-one [Example 35]”, pIC50 7.35. Against it:
- (3R)-1-{[3-(4-fluorobenzyl)-7-hydroxy-6-oxo-6,7-dihydro-3H-pyrrolo[2,3-c]-1,7-naphthyridin-1-yl]methyl)-N,N-dimethylpyrrolidine-3-carboxamide [Example 17] — 0.70 log units higher, 8.05

What follows are compounds tested on RF strain of HIV-1 (assay: HIV-1 cell protection assay (XTT dye reduction)). Conditions: Human immunodeficiency virus 1, CEM-SS, 144 h, CEM-SS cells infected with HIV-1 RF, six days, XTT formazan; read-out: EC50.
Type: cell-based
Description: Example 61: HIV-1 Cell Protection Assay
The antiviral activities of potential modulator compounds (test compounds) were determined in HIV-1 cell protection assays using the RF strain of HIV-1, CEM-SS cells, and the XTT dye reduction method (Weislow, O.S. et al., J. Natl. Cancer Inst. 81: 577-586 (1989)). Subject cells were infected with HIV-1 RF virus at an moi of 0.025 to 0.819 or mock infected with medium only and added at 2 x 10^4 cells per well into 96 well plates containing half-log dilutions of test compounds. Six days later, 50 µl of XTT solution (1 mg/ml XTT tetrazolium and […] phenazine methosulfate) were added to the wells and the plates were reincubated for four hours. Viability, as determined by the amount of XTT formazan produced, was quantified spectrophotometrically by absorbance at 450 nm.
Data from CPE assays were expressed as the percent of formazan produced in compound-treated cells compared to formazan produced in wells of uninfected, compound-free cells. […] The therapeutic index was calculated by dividing the cytotoxicity (CC50) by the antiviral activity (EC50).

Point of comparison: O=c1c2ncc3c(c(CN4CCN5C[C@H](O)CC5C4)cn3Cc3ccc(F)cc3)c2ccn1O (stereo partly drawn) [Example 55, 3-(4-fluorobenzyl)-7-hydroxy-1-{[(7R)-7-hydroxyhexahydropyrrolo[1,2-a]pyrazin-2(1 H)-yl]methyl}-3,7-dihydro-6H-pyrrolo[2,3-c]-1,7-naphthyridin-6-one], pEC50 7.16. Against it:
- O=c1c2ncc3c(c(COCCOC4CCCCC4)cn3Cc3ccc(F)cc3)c2ccn1O [Example 34, 1-{[2-(cyclohexyloxy)ethoxy]methyl}-3-(4-fluorobenzyl)-7-hydroxy-3,7-dihydro-6H-pyrrolo[2,3-c]-1,7-naphthyridin-6-one] — 1.54 log units higher, 8.70
- COCCOCc1cn(Cc2ccc(F)cc2)c2cnc3c(=O)n(O)ccc3c12 [Example 36, 3-(4-fluorobenzyl)-7-hydroxy-1-[(2-methoxyethoxy)methyl]-3,7-dihydro-6H-pyrrolo[2,3-c]-1,7-naphthyridin-6-one] — 2.24 log units higher, 9.40
- O=c1c2ncc3c(c(COC4CCOCC4)cn3Cc3ccc(F)cc3)c2ccn1O [Example 37, 3-(4-fluorobenzyl)-7-hydroxy-1-[(tetrahydro-2H-pyran-4-yloxy)methyl]-3,7-dihydro-6H-pyrrolo[2,3-c]-1,7-naphthyridin-6-one] — 1.84 log units higher, 9.00
- O=c1c2ncc3c(c(CNC4(CO)CCCC4)cn3Cc3ccc(F)cc3)c2ccn1O [Example 39, 3-(4-fluorobenzyl)-7-hydroxy-1-({[1-(hydroxymethyl)cyclopentyl]amino}methyl)-3,7-dihydro-6H-pyrrolo[2,3-c]-1,7-naphthyridin-6-one] — 1.24 log units higher, 8.40
- CCCNCc1cn(Cc2ccc(F)cc2)c2cnc3c(=O)n(O)ccc3c12 [Example 40, 3-(4-fluorobenzyl)-7-hydroxy-1-[(propylamino)methyl] -3,7-dihydro-6H-pyrrolo[2,3-c]-1,7-naphthyridin-6-one] — 1.54 log units higher, 8.70
- Cc1cccc(CNCc2cn(Cc3ccc(F)cc3)c3cnc4c(=O)n(O)ccc4c23)c1 [Example 41, 3-(4-fluorobenzyl)-7-hydroxy-1-{[(3-methylbenzyl)amino]methyl}-3,7-dihydro-6H-pyrrolo[2,3-c]-1,7-naphthyridin-6-one] — 1.36 log units higher, 8.52
- Cc1cnc(CNCc2cn(Cc3ccc(F)cc3)c3cnc4c(=O)n(O)ccc4c23)cn1 [Example 42, 3-(4-fluorobenzyl)-7-hydroxy-1-({[(5-methylpyrazin-2-yl)methyl]amino}methyl)-3,7-dihydro-6H-pyrrolo[2,3-c]-1,7-naphthyridin-6-one] — 1.36 log units higher, 8.52
- O=c1c2ncc3c(c(CNCc4ccc(C(F)(F)F)cc4)cn3Cc3ccc(F)cc3)c2ccn1O [Example 43, 3-(4-fluorobenzyl)-7-hydroxy-1-({[4-(trifluoromethyl)benzyl]amino)methyl)-3,7-dihydro-6H-pyrrolo[2,3-c]-1,7-naphthyridin-6-one] — 1.94 log units higher, 9.10
- O=c1c2ncc3c(c(CNCc4ccccn4)cn3Cc3ccc(F)cc3)c2ccn1O [Example 44, 3-(4-fluorobenzyl)-7-hydroxy-1-{[(pyridin-2-ylmethyl)amino]methyl}-3,7-dihydro-6H-pyrrolo[2,3-c]-1,7-naphthyridin-6-one] — 1.97 log units higher, 9.13
- O=C1c2ncc3c(ccn3Cc3ccc(F)cc3)c2CCCN1O [Example 45, 3-(4-fluorobenzyl)-7-hydroxy-7,8,9,10-tetrahydropyrrolo[3',2' :4,5]pyrido[2,3-c]azepin-6(3H)-one] — 0.54 log units higher, 7.70
- CCCCc1cc2c(ncc3c2ccn3Cc2ccc(F)cc2)c(=O)n1O [Example 46, 8-butyl-3-(4-fluorobenzyl)-7-hydroxy-3,7-dihydro-6H-pyrrolo[2,3-c]-1,7-naphthyridin-6-one] — 0.86 log units higher, 8.02
- Cc1cc2c(ncc3c2ccn3Cc2ccc(F)cc2)c(=O)n1O [Example 47, 3-(4-fluorobenzyl)-7-hydroxy-8-methyl-3,7-dihydro-6H-pyrrolo[2,3-c]-1,7-naphthyridin-6-one] — 2.48 log units higher, 9.64
- CCCN(CCO)Cc1cn(Cc2ccc(F)cc2)c2cnc3c(=O)n(O)ccc3c12 [Example 48, 3-(4-fluorobenzyl)-7-hydroxy-1-{[(2-hydroxyethyl)(propyl)amino]methyl}-3,7-dihydro-6H-pyrrolo[2,3-c]-1,7-naphthyridin-6-one] — 1.76 log units higher, 8.92
- O=c1c2ncc3c(c(CN4CCCCC4CO)cn3Cc3ccc(F)cc3)c2ccn1O (centres unmarked) [Example 49, 3-(4-fluorobenzyl)-7-hydroxy-1-{[2-(hydroxymethyl)piperidin-1-yl]methyl}-3,7-dihydro-6H-pyrrolo[2,3-c]-1,7-naphthyridin-6-one] — 0.69 log units higher, 7.85
- CCN(CC)CCN(CC)Cc1cn(Cc2ccc(F)cc2)c2cnc3c(=O)n(O)ccc3c12 [Example 50, 1-{[[2-(diethylamino)ethyl](ethyl)amino]methyl}-3-(4-fluorobenzyl)-7-hydroxy-3,7-dihydro-6H-pyrrolo[2,3-c]-1,7-naphthyridin-6-one] — 0.91 log units higher, 8.07
- CCN(Cc1ccc(C)cc1)Cc1cn(Cc2ccc(F)cc2)c2cnc3c(=O)n(O)ccc3c12 [Example 51, 1-{[ethyl(4-methylbenzyl)amino]methyl}-3-(4-fluorobenzyl)-7-hydroxy-3,7-dihydro-6H-pyrrolo[2,3-c]-1,7-naphthyridin-6-one] — 1.73 log units higher, 8.89
- CCS(=O)(=O)N1CCN(Cc2cn(Cc3ccc(F)cc3)c3cnc4c(=O)n(O)ccc4c23)CC1 [Example 52, 1-{[4-(ethylsulfonyl)piperazin-1-yl]methyl}-3-(4-fluorobenzyl)-7-hydroxy-3,7-dihydro-6H-pyrrolo[2,3-c]-1,7-naphthyridin-6-one] — 1.64 log units higher, 8.80
- O=c1c2ncc3c(c(CN4CCC(O)CC4)cn3Cc3ccc(F)cc3)c2ccn1O [Example 53, 3-(4-fluorobenzyl)-7-hydroxy-1-[(4-hydroxypiperidin-1-yl)methyl]-3,7-dihydro-6H-pyrrolo[2,3-c]-1,7-naphthyridin-6-one] — 0.73 log units higher, 7.89
- CN(Cc1ccccc1)Cc1cn(Cc2ccc(F)cc2)c2cnc3c(=O)n(O)ccc3c12 [Example 54, 1-{[benzyl(methyl)amino]methyl}-3-(4-fluorobenzyl)-7-hydroxy-3,7-dihydro-6H-pyrrolo[2,3-c]-1,7-naphthyridin-6-one] — 2.22 log units higher, 9.38
- O=C1NC[C@@H]2CCN(Cc3cn(Cc4ccc(F)cc4)c4cnc5c(=O)n(O)ccc5c34)C[C@H]12 [Example 56, 3-(4-fluorobenzyl)-7-hydroxy-1-{[(3aR,7aR)-3-oxooctahydro-5H-pyrrolo[3,4-c]pyridin-5-yl]methyl}-3,7-dihydro-6H-pyrrolo[2,3-c]-1,7-naphthyridin-6-one] — 0.69 log units higher, 7.85
- O=c1c2ncc3c(c(CN4CCOCC4)cn3Cc3ccc(F)cc3)c2ccn1O [Example 57, 3-(4-fluorobenzyl)-7-hydroxy-1-(morpholin-4-ylmethyl)-3,7-dihydro-6H-pyrrolo[2,3-c]-1,7-naphthyridin-6-one] — 2.33 log units higher, 9.49
- O=c1c2ncc3c(c(CN4CCN(CCN5CCOCC5)CC4)cn3Cc3ccc(F)cc3)c2ccn1O [Example 58, 3-(4-fluorobenzyl)-7-hydroxy-1-{[4-(2-morpholin-4-ylethyl)piperazin-1-yl]methyl}-3,7-dihydro-6H-pyrrolo[2,3-c]-1,7-naphthyridin-6-one] — 0.33 log units higher, 7.49
- CN(Cc1cnn(-c2ccccc2)c1)Cc1cn(Cc2ccc(F)cc2)c2cnc3c(=O)n(O)ccc3c12 [Example 59, 3-(4-fluorobenzyl)-7-hydroxy-1-({methyl[(1-phenyl-1 H-pyrazol-4-yl)methyl]amino}methyl)-3,7-dihydro-6H-pyrrolo[2,3-c]-1,7-naphthyridin-6-one] — 1.97 log units higher, 9.13
